Assay results taken from article PMC12457685 (Scientific Reports, 2025).
Where “and” joins values, the source holds several entries; their conditions need not be identical. Equal entries are not always repeated. Non-standard residues stand in square brackets, D forms with d. Residues, ends and D or L forms follow the SMILES beside them. Pra = C#CC[C@H](N)C(=O)O

B1: ACE2 epitope a2 (peptide)
chain: QSTLAQMYPLYEIYNLTVKL

Columns and labels:
SARS-CoV-2 Alpha RBD = SARS-CoV-2 Alpha RBD (Severe acute respiratory syndrome coronavirus 2, UniProt P0DTC2); assay: biochemical; assay type: binding
SARS-CoV-1 RBD = SARS-CoV-1 RBD (Severe acute respiratory syndrome coronavirus, UniProt P59594); assay: biochemical; assay type: binding
[1] = biological target: SARS-CoV-1 spike RBD RBD (Severe acute respiratory syndrome coronavirus), P59594; assay: SPR; conditions: modification not given

Row | Molecule | Kd (SARS-CoV-2 Alpha RBD) | kon (SARS-CoV-2 Alpha RBD; read-out: ka) | ka (SARS-CoV-2 Alpha RBD; spr) | Kd (SARS-CoV-1 RBD) | kon (SARS-CoV-1 RBD; read-out: ka) | Kd [1]
1 | C#CC[C@H](NC(=O)[C@H](CC(C)C)NC(=O)[C@H](CCCCN)NC(=O)[C@@H](NC(=O)[C@@H](NC(=O)[C@H](CC(C)C)NC(=O)[C@H](CC(N)=O)NC(=O)[C@H](Cc1ccc(O)cc1)NC(=O)[C@@H](NC(=O)[C@H](CCC(=O)O)NC(=O)[C@H](Cc1ccc(O)cc1)NC(=O)[C@H](CC(C)C)NC(=O)[C@@H]1CCCN1C(=O)[C@H](Cc1ccc(O)cc1)NC(=O)[C@H](CCSC)NC(=O)[C@H](CCC(N)=O)NC(=O)[C@H](C)NC(=O)[C@H](CC(C)C)NC(=O)[C@@H](NC(=O)[C@H](CO)NC(=O)[C@@H](N)CCC(N)=O)[C@@H](C)O)[C@@H](C)CC)[C@@H](C)O)C(C)C)C(N)=O [a2] (H-QSTLAQMYPLYEIYNLTVKL[Pra]-NH2) | 89 ± 5 nM | 59300 M⁻¹ s⁻¹ | 5,66e4 M-1s-1 and 6,08e4 M-1s-1 | 21 ± 5 nM | 85900 M⁻¹ s⁻¹ | –
2 | B1 | – | – | – | – | – | 21 nM
